Laboratory results published in ChEMBL document CHEMBL1201862, “PubChem BioAssay data set” (2004).
Calls of active or inactive are those of the source.

Tests used:
CHO-K1 = test: (§1) Counterscreen for antagonists of the orexin 1 receptor (OX1R; HCRTR1): Homogeneous time resolved fluorescence (HTRF)-based cell-based dose response assay to identify antagonists of the parental CHO-K1 cell line. [Related pubchem assays (depositor defined):AID434989, AID435008, AID463079, AID485270, AID492963, AID492964, AID492965, AID493232, AID504699, AID504701]; format: functional; settings: Cricetulus griseus
[1] = biological target: Luciferin 4-monooxygenase (Photinus pyralis, UniProt P08659); test: firefly luciferase enzyme inhibitors, dose response, biochemical, luminescence (AID 1891)
[2] = HEK293 cell cytotoxicity, dose response, cytotoxicity control, plate reader, cherry-picked samples (AID 743446); format: functional, cell-based
Protein skinhead-1 = biological target: T1, Protein skinhead-1 (Caenorhabditis elegans, UniProt P34707); format: functional
T1 sequence (P34707 whole entry): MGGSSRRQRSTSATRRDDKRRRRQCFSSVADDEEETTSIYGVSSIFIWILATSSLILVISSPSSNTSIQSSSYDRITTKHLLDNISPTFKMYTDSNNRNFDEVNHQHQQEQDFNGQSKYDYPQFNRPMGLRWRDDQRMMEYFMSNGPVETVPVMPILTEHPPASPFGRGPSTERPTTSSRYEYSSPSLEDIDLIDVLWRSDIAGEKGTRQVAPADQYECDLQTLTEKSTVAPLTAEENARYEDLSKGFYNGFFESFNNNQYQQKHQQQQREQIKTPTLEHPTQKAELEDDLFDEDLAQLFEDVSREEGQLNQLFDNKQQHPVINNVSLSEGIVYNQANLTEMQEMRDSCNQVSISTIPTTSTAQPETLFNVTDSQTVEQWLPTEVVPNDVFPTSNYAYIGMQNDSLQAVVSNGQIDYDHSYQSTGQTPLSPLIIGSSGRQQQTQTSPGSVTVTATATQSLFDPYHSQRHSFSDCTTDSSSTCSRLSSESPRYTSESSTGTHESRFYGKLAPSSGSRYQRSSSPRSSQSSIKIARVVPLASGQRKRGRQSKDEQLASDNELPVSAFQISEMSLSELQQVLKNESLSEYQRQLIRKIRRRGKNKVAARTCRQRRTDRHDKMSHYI

[3] = Luminescence Cell-Based Dose Confirmation HTS to Identify Inhibitors of Platelet Dense Granule Release. [Related pubchem assays: 1663 (Primary HTS), 1678 (Summary of Project)]; format: functional
BJ [4] = test: cytotoxicity toward Ras-transformed BJeLR fibroblasts, dose response, cell-based, alamar blue fluorescence, cherrypicked samples (AID 2631); format: functional; settings: Homo sapiens;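 further: confirmatory dose-response assay in RAS-dependent BJ fibroblasts engineered with TERT, LT and ST, with cytotoxicity read by fluorescence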
Orexin receptor type 2 [5] = biological target: T2, Orexin receptor type 2 (Homo sapiens, UniProt O43614); test: Counterscreen assay for antagonists of the orexin 1 receptor (OX1R; HCRTR1): Homogeneous Time Resolved Fluorescence (HTRF)-based cell-based dose response assay for antagonists of the orexin 2 receptor (OX2R; HCRTR2), run by assay provider.; format: functional
[6] = biological target: T3, Oxysterols receptor LXR-beta (Homo sapiens, UniProt P55055); format: functional, cell-based;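 further: Cell-based luminescence dose-response assay of agonist activity at LXR, run as a confirmatory counterscreen to a daf-12 agonist screen; HEK293 cells with Gal4-LXR fusion and GAL4-driven luciferase reporter; agonist potency from rising luciferase signal of a Gal4-LXR reporter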
T3 sequence (P55055 whole entry): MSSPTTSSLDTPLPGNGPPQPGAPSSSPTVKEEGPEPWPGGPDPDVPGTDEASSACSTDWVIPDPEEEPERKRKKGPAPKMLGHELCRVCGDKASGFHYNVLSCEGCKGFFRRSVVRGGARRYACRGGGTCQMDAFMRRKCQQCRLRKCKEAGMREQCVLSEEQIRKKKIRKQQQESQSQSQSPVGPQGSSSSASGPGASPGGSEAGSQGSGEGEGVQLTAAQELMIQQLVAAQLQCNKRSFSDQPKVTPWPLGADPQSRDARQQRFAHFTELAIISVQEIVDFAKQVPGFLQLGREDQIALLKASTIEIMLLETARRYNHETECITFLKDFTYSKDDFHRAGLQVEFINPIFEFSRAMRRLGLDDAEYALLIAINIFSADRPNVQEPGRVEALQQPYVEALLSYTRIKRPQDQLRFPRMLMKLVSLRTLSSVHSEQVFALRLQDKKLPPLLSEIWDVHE

BJ [7] = test: cytotoxicity toward BJ-TERT-LT-ST fibroblasts, dose response, cell-based, RAS-independent, luminescence (AID 1935); format: functional; settings: Homo sapiens;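 further: BJ fibroblasts immortalized with TERT plus LT and ST oncogenes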
[8] = biological target: T4, Orexin/Hypocretin receptor type 1 (Homo sapiens, UniProt O43613); test: (§2) Fluorescence-based cell-based high throughput dose response assay for antagonists of the orexin 1 receptor (OX1R; HCRTR1). [Related pubchem assays (depositor defined):AID434989, AID435008, AID463079, AID485270, AID492963, AID492964, AID492965, AID493232, AID504717, AID504718]; format: functional
[9] = as §1, with “Fluorescence-based” for “Homogeneous time resolved fluorescence (HTRF)-based”, “cell-based high throughput” for “cell-based”, “CHO” for “CHO-K1”; format: functional
[10] = LGR2 antagonists, dose response, cell-based, HEK293, CRE-luciferase reporter, cherry pick, set 2 (AID 743343); format: functional;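 further: transfected cells were stimulated with diluted bursicon conditioned medium after compound addition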
Orexin receptor type 2 [11] = biological target: T2, Orexin receptor type 2; test: Counterscreen assay for antagonists of the orexin 1 receptor (OX1R; HCRTR1): Fluorescence-based cell-based dose response assay for antagonists of the orexin 2 receptor (OX2R; HCRTR2), run by assay provider.; format: functional
[12] = HepG2 cell cytotoxicity, dose response, cytotoxicity control, plate reader, cherry-pick, antagonist series (AID 743416); format: functional, cell-based
[13] = cytotoxicity toward DRD oncogenic fibroblasts, dose response, cell-based, non-viral oncogenic, luminescence (AID 1934); format: functional; settings: Homo sapiens
[14] = MC4R antagonists, dose response, counter-screen for LGR2 antagonist project, cell-based, plate reader, cherry pick (AID 743444); format: functional;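 further: transfected HEK 293 cells stimulated with alpha-MSH peptide; potency of inhibitors of the alpha-MSH evoked signal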
[15] = A Cell Based Secondary Assay To Explore Cytotoxicity of Compounds that Sensitize Mycobacterium Tuberculosis to Beta-Lactam Antibiotics.; format: functional
BJ [16] = test: cytotoxicity toward BJ-TERT fibroblasts, dose response, cell-based, RAS-independent, luminescence (AID 1933); format: functional; settings: Homo sapiens
BJ [17] = test: cells; format: functional, cell-based; settings: Homo sapiens
[18] = A549 cell cytotoxicity, dose response, cytotoxicity control, plate reader, cherry-pick, antagonist series (AID 743412); format: functional, cell-based
[19] = biological target: T4, Orexin/Hypocretin receptor type 1; test: as §2, with “Homogeneous Time Resolved Fluorescence (HTRF)-based” for “Fluorescence-based”; format: functional
Cytochrome P450 2D6 = Cytochrome P450 2D6 (Homo sapiens, UniProt P10635);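 further: CYP2D6 member of a cytochrome P450 panel assay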
Prothrombin = Prothrombin (Bos taurus, UniProt P00735); test: thrombin inhibition, dose response, biochemical, fluorescence polarization, uHTS hits (AID 602369); format: functional
Aminopeptidase N = biological target: T5, Aminopeptidase N (Plasmodium falciparum FcB1/Columbia, UniProt O96935); test: P. falciparum M1AAP inhibitors, biochemical, fluorogenic H-Leu-NHMec substrate, 1536-well (AID 1445); design: species or system Plasmodium falciparum 3D7, 3D7
T5 sequence (O96935 whole entry): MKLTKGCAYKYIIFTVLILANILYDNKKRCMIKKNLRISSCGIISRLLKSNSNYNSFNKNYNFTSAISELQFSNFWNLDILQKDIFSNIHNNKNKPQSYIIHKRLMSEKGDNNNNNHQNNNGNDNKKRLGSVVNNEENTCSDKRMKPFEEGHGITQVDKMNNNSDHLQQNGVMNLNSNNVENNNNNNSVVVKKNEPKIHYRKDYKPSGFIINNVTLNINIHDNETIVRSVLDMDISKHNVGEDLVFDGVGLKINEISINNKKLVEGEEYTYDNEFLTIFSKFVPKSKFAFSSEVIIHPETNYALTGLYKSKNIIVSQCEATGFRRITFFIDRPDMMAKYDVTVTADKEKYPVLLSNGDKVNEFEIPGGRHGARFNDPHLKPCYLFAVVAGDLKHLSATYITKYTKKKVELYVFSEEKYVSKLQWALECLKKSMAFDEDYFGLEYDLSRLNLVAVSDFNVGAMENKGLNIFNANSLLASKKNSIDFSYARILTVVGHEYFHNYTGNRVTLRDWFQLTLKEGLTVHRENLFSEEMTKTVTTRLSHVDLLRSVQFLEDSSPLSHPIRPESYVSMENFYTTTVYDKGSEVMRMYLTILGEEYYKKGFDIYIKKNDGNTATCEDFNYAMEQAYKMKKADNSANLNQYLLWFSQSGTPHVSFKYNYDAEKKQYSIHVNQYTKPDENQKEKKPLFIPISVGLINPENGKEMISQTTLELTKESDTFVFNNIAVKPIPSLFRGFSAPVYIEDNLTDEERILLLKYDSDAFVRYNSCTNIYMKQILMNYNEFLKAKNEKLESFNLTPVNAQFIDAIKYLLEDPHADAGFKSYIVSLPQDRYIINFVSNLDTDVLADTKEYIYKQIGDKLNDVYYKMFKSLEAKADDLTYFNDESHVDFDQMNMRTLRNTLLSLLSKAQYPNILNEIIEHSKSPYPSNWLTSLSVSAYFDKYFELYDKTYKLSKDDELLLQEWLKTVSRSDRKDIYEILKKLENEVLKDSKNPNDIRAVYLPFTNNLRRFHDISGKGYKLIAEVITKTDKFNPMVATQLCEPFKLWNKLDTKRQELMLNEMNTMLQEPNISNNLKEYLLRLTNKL

[20] = biological target: 72 kDa type IV collagenase (Homo sapiens, UniProt P08253); test: Dose Response validation of uHTS RPN11 inhibitor hits using a MMP-2 Fluorescence assay.; format: functional
[21] = biological target: 26S proteasome non-ATPase regulatory subunit 14 (Homo sapiens, UniProt O00487); test: inhibition of proteasome subunit RPN11 – biochemical, fluorescence polarization, uHTS hits, confirmation (AID 602368); format: functional
Chain of 26S proteasome non-ATPase regulatory subunit 14 (O00487 whole entry): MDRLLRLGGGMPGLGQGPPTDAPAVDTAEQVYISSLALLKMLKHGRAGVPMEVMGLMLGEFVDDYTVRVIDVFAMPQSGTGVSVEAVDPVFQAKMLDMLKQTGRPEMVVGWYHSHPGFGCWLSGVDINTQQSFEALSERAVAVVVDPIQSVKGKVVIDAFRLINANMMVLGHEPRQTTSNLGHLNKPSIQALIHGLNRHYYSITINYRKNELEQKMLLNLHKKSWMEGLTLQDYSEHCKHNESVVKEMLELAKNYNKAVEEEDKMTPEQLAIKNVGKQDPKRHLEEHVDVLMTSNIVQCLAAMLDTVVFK

T4 sequence (O43613 whole entry): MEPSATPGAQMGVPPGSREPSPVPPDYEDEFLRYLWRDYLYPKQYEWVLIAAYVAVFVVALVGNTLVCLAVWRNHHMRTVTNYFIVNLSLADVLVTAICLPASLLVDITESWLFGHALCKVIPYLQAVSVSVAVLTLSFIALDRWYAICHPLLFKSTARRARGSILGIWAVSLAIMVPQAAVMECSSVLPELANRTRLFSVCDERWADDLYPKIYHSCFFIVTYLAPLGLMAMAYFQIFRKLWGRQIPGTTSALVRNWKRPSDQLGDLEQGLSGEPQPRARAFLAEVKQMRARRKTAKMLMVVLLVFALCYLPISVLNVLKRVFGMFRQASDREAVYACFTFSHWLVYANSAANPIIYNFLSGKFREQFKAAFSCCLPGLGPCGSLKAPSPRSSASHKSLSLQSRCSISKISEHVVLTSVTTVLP
T2 sequence (O43614 whole entry, the tested form may be a part): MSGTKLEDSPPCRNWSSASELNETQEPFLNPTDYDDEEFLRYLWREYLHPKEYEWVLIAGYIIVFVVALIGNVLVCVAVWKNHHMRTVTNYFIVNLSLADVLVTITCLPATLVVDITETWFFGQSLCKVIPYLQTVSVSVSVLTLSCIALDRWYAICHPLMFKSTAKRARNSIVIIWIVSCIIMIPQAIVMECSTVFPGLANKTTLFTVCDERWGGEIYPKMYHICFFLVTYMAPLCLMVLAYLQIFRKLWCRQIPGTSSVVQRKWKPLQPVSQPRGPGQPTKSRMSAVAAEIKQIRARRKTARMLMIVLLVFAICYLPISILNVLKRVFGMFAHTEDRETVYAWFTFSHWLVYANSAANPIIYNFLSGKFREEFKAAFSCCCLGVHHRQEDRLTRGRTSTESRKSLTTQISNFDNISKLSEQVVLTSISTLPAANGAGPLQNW
Chain of Cytochrome P450 2D6 (P10635 whole entry): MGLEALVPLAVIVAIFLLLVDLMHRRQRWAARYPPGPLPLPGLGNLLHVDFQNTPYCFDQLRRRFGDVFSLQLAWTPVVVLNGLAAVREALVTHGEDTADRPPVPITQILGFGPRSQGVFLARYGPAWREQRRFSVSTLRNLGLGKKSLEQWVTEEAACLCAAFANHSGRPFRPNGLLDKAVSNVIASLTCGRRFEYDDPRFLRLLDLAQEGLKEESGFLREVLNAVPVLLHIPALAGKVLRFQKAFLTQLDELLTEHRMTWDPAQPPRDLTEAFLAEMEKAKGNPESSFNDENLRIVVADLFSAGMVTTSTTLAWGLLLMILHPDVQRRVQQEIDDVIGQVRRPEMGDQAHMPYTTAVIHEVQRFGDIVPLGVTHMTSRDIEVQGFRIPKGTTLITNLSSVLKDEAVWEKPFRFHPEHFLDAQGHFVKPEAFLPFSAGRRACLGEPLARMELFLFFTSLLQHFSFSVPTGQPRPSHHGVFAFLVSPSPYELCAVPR
Chain of 72 kDa type IV collagenase (P08253 whole entry): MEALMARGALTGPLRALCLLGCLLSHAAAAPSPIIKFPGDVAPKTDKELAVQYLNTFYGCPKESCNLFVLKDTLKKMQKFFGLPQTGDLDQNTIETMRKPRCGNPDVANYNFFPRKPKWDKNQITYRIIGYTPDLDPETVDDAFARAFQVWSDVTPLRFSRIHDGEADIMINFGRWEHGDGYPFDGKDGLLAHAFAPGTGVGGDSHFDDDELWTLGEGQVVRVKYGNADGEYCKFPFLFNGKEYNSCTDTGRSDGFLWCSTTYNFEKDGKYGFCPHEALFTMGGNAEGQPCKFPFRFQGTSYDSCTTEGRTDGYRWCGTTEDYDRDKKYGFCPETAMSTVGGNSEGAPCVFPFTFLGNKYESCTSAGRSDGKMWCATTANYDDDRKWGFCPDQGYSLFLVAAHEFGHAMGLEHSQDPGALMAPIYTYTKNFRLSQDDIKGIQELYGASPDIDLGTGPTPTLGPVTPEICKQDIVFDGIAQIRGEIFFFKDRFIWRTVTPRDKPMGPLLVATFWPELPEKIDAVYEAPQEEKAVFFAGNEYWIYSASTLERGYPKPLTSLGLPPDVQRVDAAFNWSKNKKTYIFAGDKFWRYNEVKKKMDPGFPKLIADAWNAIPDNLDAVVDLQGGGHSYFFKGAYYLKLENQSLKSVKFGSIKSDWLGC
Chain of Luciferin 4-monooxygenase (P08659 whole entry): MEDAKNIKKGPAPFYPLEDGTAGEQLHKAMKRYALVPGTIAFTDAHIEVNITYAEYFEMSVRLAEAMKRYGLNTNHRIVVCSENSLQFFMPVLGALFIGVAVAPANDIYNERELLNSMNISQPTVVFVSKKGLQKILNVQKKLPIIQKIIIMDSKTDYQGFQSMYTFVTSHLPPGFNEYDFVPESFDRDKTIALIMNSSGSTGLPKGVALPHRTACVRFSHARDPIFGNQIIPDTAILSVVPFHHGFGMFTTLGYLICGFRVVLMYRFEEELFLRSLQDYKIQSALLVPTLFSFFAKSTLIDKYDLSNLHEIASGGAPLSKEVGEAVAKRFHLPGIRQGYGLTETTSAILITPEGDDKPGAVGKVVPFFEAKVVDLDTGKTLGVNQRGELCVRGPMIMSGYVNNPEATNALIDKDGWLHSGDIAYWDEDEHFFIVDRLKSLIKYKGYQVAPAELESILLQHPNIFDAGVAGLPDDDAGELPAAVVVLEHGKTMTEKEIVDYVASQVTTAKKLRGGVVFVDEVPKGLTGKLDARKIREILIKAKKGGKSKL

With c1ccc2nc(-c3nc4ccccc4o3)ccc2c1 the IC50 (CHO-K1) was > 66.2 µM (inactive), the EC50 [1] was 1.36 µM (active) and the AC50 [2] was 11.1 µM (active). The IC50 (Protein skinhead-1) was 9.69 µM (active), the EC50 [3] was 4.38 µM (active) and the EC50 (BJ [4]) was > 133 µM (inactive). For the same molecule, the IC50 (Orexin receptor type 2 [5]) was 0.006 µM (active), the EC50 [6] was > 67.5 µM (inactive) and the EC50 (BJ [7]) was > 150 µM (inconclusive). The EC50 (cells) was > 67.5 µM (inactive), the IC50 [8] was 5.46 µM (active) and the IC50 [9] was > 49.8 µM (inactive). For the same molecule, the AC50 [10] was 3.53 µM (active), the IC50 (Orexin receptor type 2 [11]) was 41.7 µM (inactive) and the AC50 [12] was > 52 µM (inactive). For the same molecule, the EC50 [13] was 7.36 µM (active), the AC50 [14] was 2.72 µM (active) and the CC50 [15] was > 40 µM (active). For the same molecule, the EC50 (BJ [16]) was 10.5 µM (active), the EC50 (BJ [17]) was 8.74 µM (active) and the AC50 [18] was 22.5 µM (active). For the same molecule, the IC50 [19] was 0.954 µM (active).
With N#Cc1c(O)nc(SCC(=O)c2cccs2)nc1-c1cccs1 the AC50 (Cytochrome P450 2D6) was “inconclusive”, the IC50 (Prothrombin) was 47.8 µM (active) and the IC50 (Aminopeptidase N) was 24.1 µM (active). For the same molecule, the IC50 [20] was > 100 µM (inactive) and the IC50 [21] was 37.2 µM (active).
